The source of these data is patent publication US20200347043A1, “MODULATORS OF THE INTEGRATED STRESS PATHWAY” (Calico Life Sciences LLC, priority 2019, published 2020).

The assay concerns HEK293T cells carrying the ATF4 luciferase reporter. The assay is described as follows: ATF4-Luc assay (in vitro model of VWMD). To be noted: Homo sapiens, HEK-293T, 1 μg/mL tunicamycin, 7 hours, One Glo luminescence. It is filed as cell-based, human. In short, it runs like this:
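Stable HEK293T line expressing firefly luciferase behind the human ATF4 5′-UTR, treated with 1 μg/mL tunicamycin plus compound for 7 hours. Luminescence read with One Glo; EC50 determined.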

In the case of `O=C(N[C@H]1CC[C@H](C(=O)N2CC(c3ccc(Cl)cc3)C2)CC1)[C@@H]1C[C@@H](O)c2cc(Cl)ccc2O1` [Compound 178], the EC50 is 10 to 50 nM.
For `O=C(COc1ccc(Cl)c(F)c1)NC12CC(C(=O)NCC3CCc4cc(Cl)ccc4O3)(C1)C2` (stereo not shown) [Compound 129, N-[(6-chloro-3,4-dihydro-2H-1-benzopyran-2-yl)methyl]-3-[2-(4-chloro-3-fluorophenoxy)acetamido]bicyclo[1.1.1]pentane-1-carboxamide] the value was 10 to 50 nM; for `O=C1C[C@@H](C(=O)N[C@@H]2CC[C@@H](c3nnc([C@H]4C[C@@H](OC(F)(F)F)C4)o3)OC2)Oc2ccc(Cl)cc21` [Compound 177, (2S)-6-chloro-4-oxo-N-[(3R,6S)-6-{5-[cis-3-(trifluoromethoxy)cyclobutyl]-1,3,4-oxadiazol-2-yl}oxan-3-yl]-3,4-dihydro-2H-1-benzopyran-2-carboxamide], 50 to 250 nM.
To `O=C(N[C@H]1CC[C@H](C(=O)N2CC(c3ccccc3)C2)CC1)[C@H]1C[C@@H](O)c2cc(Cl)ccc2O1` [Compound 182, (2R,4R)-6-chloro-4-hydroxy-N-[trans-4-(3-phenylazetidine-1-carbonyl)cyclohexyl]-3,4-dihydro-2H-1-benzopyran-2-carboxamide] belongs above 2000 nM.
To `O=C(CO[C@H]1C[C@@H](OC(F)(F)F)C1)N[C@@H]1C[C@@H]2C[C@H]1C[C@H]2NC(=O)[C@H]1C[C@@H](O)c2cc(Cl)ccc2O1` (relative stereo) [Compound 211, (2R,4R)-6-chloro-4-hydroxy-N-[(1S*,2R*,4S*,5R*)-5-(2-{[cis-3-(trifluoromethoxy)cyclobutyl]oxy}acetamido)bicyclo[2.2.1]heptan-2-yl]-3,4-dihydro-2H-1-benzopyran-2-carboxamide] belongs below 10 nM; to `O=C(N[C@H]1CC[C@H](C(=O)N[C@H]2C[C@@H](OC(F)(F)F)C2)CC1)[C@H]1C[C@@H](O)c2cc(Cl)ccc2O1` [Compound 215, (2R,4R)-6-chloro-4-hydroxy-N-[trans-4-{[cis-3-(trifluoromethoxy)cyclobutyl]carbamoyl}cyclohexyl]-3,4-dihydro-2H-1-benzopyran-2-carboxamide], below 10 nM; to `O=C1CC(C(=O)NC23CCC(c4nnc(C5CC(OC(F)(F)F)C5)o4)(C2)C3)Oc2ccc(Cl)cc21` (stereo not shown) [Compound 150, 6-chloro-4-oxo-N-(4-{5-[(1s,3s)-3-(trifluoromethoxy)cyclobutyl]-1,3,4-oxadiazol-2-yl}bicyclo[2.1.1]hexan-1-yl)-3,4-dihydro-2H-1-benzopyran-2-carboxamide], above 2000 nM.
Consider `O=C(NC12CC(N3CC(c4ccc(Cl)cc4)CC3=O)(C1)C2)[C@H]1C[C@@H](O)c2cc(Cl)ccc2O1` (stereo partly drawn) [Compound 307, (2R,4R)-6-chloro-N-{3-[4-(4-chlorophenyl)-2-oxopyrrolidin-1-yl]bicyclo[1.1.1]pentan-1-yl}-4-hydroxy-3,4-dihydro-2H-1-benzopyran-2-carboxamide], for which the EC50 is below 10 nM.
Regarding `O=C(NC12CC(C(=O)NCc3nc4cc(F)c(F)cc4[nH]3)(C1)C2)[C@H]1C[C@@H](O)c2cc(Cl)ccc2O1` [Compound 127, (2R,4R)-6-chloro-N-(3-{[(5,6-difluoro-1H-benzimidazol-2-yl)methyl]carbamoyl}bicyclo[1.1.1]pentan-1-yl)-4-hydroxy-3,4-dihydro-2H-1-benzopyran-2-carboxamide], the EC50 fell in the range of 10 to 50 nM.
Take `O=C1CC(C(=O)NC23CCC(c4nnc([C@H]5C[C@@H](OC(F)(F)F)C5)o4)(CC2)OC3)Oc2ccc(Cl)cc21` (stereo partly shown) [Compound 163]: the EC50 was 10 to 50 nM.
Consider `O=C1C[C@H](C(=O)NC23CC(C(=O)NCc4nc5cc(F)c(F)cc5[nH]4)(C2)C3)Oc2ccc(Cl)cc21` [Compound 135, (2R)-6-chloro-N-(3-{[(5,6-difluoro-1H-benzimidazol-2-yl)methyl]carbamoyl}bicyclo[1.1.1]pentan-1-yl)-4-oxo-3,4-dihydro-2H-1-benzopyran-2-carboxamide], for which the EC50 was in the range of 50 to 250 nM.
On to `O=C(NC12CC(C3=NOC([C@H]4C[C@@H](O)C4)C3)(C1)C2)[C@@H]1C[C@@H](O)c2cc(Cl)ccc2O1` (stereo partly drawn) [Compound 228, (2S,4R)-6-chloro-4-hydroxy-N-(3-{5-[cis-3-hydroxycyclobutyl]-4,5-dihydro-1,2-oxazol-3-yl}bicyclo[1.1.1]pentan-1-yl)-3,4-dihydro-2H-1-benzopyran-2-carboxamide], for which the EC50 was above 2000 nM.
To `O=C(NC12CC(N3CCN(c4ccc(Cl)cc4)C3=O)(C1)C2)[C@H]1C[C@@H](O)c2cc(Cl)ccc2O1` [Compound 183, (2R,4R)-6-chloro-N-{3-[3-(4-chlorophenyl)-2-oxoimidazolidin-1-yl]bicyclo[1.1.1]pentan-1-yl}-4-hydroxy-3,4-dihydro-2H-1-benzopyran-2-carboxamide] belongs 10 to 50 nM; to `N#C[C@H]1C[C@@H](Oc2nc(C34CC(NC(=O)[C@H]5C[C@@H](O)c6cc(Cl)ccc6O5)(C3)C4)cs2)C1` [Compound 286, (2R,4R)-6-chloro-N-[3-(2-{[cis-3-cyanocyclobutyl]oxy}-1,3-thiazol-4-yl)bicyclo[1.1.1]pentan-1-yl]-4-hydroxy-3,4-dihydro-2H-1-benzopyran-2-carboxamide], 500 to 2000 nM; to `O=C(NC12CC(N3CC([C@H]4C[C@@H](OC(F)(F)F)C4)OC3=O)(C1)C2)[C@@H]1C[C@@H](O)c2cc(Cl)ccc2O1` (stereo partly drawn) [Compound 269, (2S,4R)-6-chloro-4-hydroxy-N-(3-{2-oxo-5-[cis-3-(trifluoromethoxy)cyclobutyl]-1,3-oxazolidin-3-yl}bicyclo[1.1.1]pentan-1-yl)-3,4-dihydro-2H-1-benzopyran-2-carboxamide], 250 to 500 nM.
As for `O=C(NC12CC(c3nc([C@H]4C[C@@H](OC(F)(F)F)C4)no3)(C1)C2)[C@@H]1C[C@@H](O)c2cc(Cl)ccc2O1` [Compound 217, (2S,4R)-6-chloro-4-hydroxy-N-(3-{3-[cis-3-(trifluoromethoxy)cyclobutyl]-1,2,4-oxadiazol-5-yl}bicyclo[1.1.1]pentan-1-yl)-3,4-dihydro-2H-1-benzopyran-2-carboxamide], the EC50 is 50 to 250 nM.
For `O=C(COc1ccc(Cl)c(F)c1)NC12CC(c3nnc([C@H]4C[C@@H](O)c5cc(Cl)ccc5O4)o3)(C1)C2` (relative stereo) [Compound 252, 2-(4-chloro-3-fluorophenoxy)-N-(3-{5-[(2R*,4R*)-6-chloro-4-hydroxy-3,4-dihydro-2H-1-benzopyran-2-yl]-1,3,4-oxadiazol-2-yl}bicyclo[1.1.1]pentan-1-yl)acetamide] the value was below 10 nM; for `O=C(N[C@H]1CC[C@H](N2CCN(c3ccc(C(F)(F)F)nc3)C2=O)CC1)[C@@H]1C[C@@H](O)c2cc(Cl)ccc2O1` [Compound 309, (2S,4R)-6-chloro-4-hydroxy-N-[trans-4-{2-oxo-3-[6-(trifluoromethyl)pyridin-3-yl]imidazolidin-1-yl}cyclohexyl]-3,4-dihydro-2H-1-benzopyran-2-carboxamide], above 2000 nM.
As for `O=C(NC12CCC(c3nnc([C@H]4C[C@@H](OC(F)(F)F)C4)o3)(C1)C2)[C@H]1C[C@@H](O)c2cc(Cl)ccc2O1` (racemic) [Compound 160, rac-(2R,4R)-6-chloro-4-hydroxy-N-(4-{5-[(1s,3S)-3-(trifluoromethoxy)cyclobutyl]-1,3,4-oxadiazol-2-yl}bicyclo[2.1.1]hexan-1-yl)-3,4-dihydro-2H-1-benzopyran-2-carboxamide], the EC50 was 50 to 250 nM.
To `O=C1C[C@H](C(=O)NC23CC(c4nnc(COc5ccc(Cl)c(F)c5)o4)(C2)C3)Oc2ccc(Cl)cc21` [Compound 108, (2R)-6-chloro-N-(3-{5-[(4-chloro-3-fluorophenoxy)methyl]-1,3,4-oxadiazol-2-yl}bicyclo[1.1.1]pentan-1-yl)-4-oxo-3,4-dihydro-2H-1-benzopyran-2-carboxamide] belongs below 10 nM.
To `O=C1C[C@H](C(=O)NC23CC(NC(=O)[C@@H]4C[C@@H]4COC(F)(F)F)(C2)C3)Oc2ccc(Cl)cc21` (mixture of isomers) [Compound 296, (2R)-6-chloro-4-oxo-N-[3-({(1RS,2SR)-2-[(trifluoromethoxy)methyl]cyclopropane-1-carbonyl}amino)bicyclo[1.1.1]pentan-1-yl]-3,4-dihydro-2H-1-benzopyran-2-carboxamide] belongs 500 to 2000 nM; to `O=C(NC12CC(c3nc([C@H]4C[C@@H](OC(F)(F)F)C4)no3)(C1)C2)[C@@H]1C[C@H](O)c2cc(Cl)ccc2O1` [Compound 218, (2S,4S)-6-chloro-4-hydroxy-N-(3-{3-[cis-3-(trifluoromethoxy)cyclobutyl]-1,2,4-oxadiazol-5-yl}bicyclo[1.1.1]pentan-1-yl)-3,4-dihydro-2H-1-benzopyran-2-carboxamide], 500 to 2000 nM; to `O=C(NC12CC(Oc3nc([C@H]4C[C@@H](OC(F)(F)F)C4)cs3)(C1)C2)[C@H]1C[C@@H](O)c2cc(Cl)ccc2O1` [Compound 301, (2R,4R)-6-chloro-4-hydroxy-N-[3-({4-[cis-3-(trifluoromethoxy)cyclobutyl]-1,3-thiazol-2-yl}oxy)bicyclo[1.1.1]pentan-1-yl]-3,4-dihydro-2H-1-benzopyran-2-carboxamide], 500 to 2000 nM.
For `O=C(N[C@H]1CC[C@H](N2CCN(c3cnc(C(F)F)cn3)C2=O)CC1)[C@H]1C[C@@H](O)c2cc(Cl)ccc2O1` [Compound 303, (2R,4R)-6-chloro-N-[trans-4-{3-[5-(difluoromethyl)pyrazin-2-yl]-2-oxoimidazolidin-1-yl}cyclohexyl]-4-hydroxy-3,4-dihydro-2H-1-benzopyran-2-carboxamide] the value was 50 to 250 nM; for `O=C(COc1ccc(Cl)cc1)NC12CCC(NC(=O)CO[C@H]3C[C@@H](OC(F)(F)F)C3)(CC1)CC2` [Compound 116, 2-(4-chlorophenoxy)-N-[4-(2-{[(1s,3s)-3-(trifluoromethoxy)cyclobutyl]oxy}acetamido)bicyclo[2.2.2]octan-1-yl]acetamide], below 10 nM.
